In article PMC8211653, “Polθ inhibitors elicit BRCA-gene synthetic lethality and target PARP inhibitor resistance” (Nature Communications, 2021) one finds IC50 data, which are given here for one compound.

Bounds are passed on as bounds.

The target in experiment [1] is T1, DNA polymerase Polθ (Homo sapiens, UniProt O75417).
T1 construct: gene POLQ; full-length (residues 2–2590)
The experiment can be described thus: PicoGreen DNA primer extension assay with recombinant full-length enzyme; supported by DNA-dependent DSF stabilisation and mechanism-of-action kinetics. Type of experiment: biochemical.

Experiment [2] has as its target T2, Polα (Homo sapiens, UniProt P09884).
T2 construct: gene POLA1
T2 sequence (P09884 1-1462): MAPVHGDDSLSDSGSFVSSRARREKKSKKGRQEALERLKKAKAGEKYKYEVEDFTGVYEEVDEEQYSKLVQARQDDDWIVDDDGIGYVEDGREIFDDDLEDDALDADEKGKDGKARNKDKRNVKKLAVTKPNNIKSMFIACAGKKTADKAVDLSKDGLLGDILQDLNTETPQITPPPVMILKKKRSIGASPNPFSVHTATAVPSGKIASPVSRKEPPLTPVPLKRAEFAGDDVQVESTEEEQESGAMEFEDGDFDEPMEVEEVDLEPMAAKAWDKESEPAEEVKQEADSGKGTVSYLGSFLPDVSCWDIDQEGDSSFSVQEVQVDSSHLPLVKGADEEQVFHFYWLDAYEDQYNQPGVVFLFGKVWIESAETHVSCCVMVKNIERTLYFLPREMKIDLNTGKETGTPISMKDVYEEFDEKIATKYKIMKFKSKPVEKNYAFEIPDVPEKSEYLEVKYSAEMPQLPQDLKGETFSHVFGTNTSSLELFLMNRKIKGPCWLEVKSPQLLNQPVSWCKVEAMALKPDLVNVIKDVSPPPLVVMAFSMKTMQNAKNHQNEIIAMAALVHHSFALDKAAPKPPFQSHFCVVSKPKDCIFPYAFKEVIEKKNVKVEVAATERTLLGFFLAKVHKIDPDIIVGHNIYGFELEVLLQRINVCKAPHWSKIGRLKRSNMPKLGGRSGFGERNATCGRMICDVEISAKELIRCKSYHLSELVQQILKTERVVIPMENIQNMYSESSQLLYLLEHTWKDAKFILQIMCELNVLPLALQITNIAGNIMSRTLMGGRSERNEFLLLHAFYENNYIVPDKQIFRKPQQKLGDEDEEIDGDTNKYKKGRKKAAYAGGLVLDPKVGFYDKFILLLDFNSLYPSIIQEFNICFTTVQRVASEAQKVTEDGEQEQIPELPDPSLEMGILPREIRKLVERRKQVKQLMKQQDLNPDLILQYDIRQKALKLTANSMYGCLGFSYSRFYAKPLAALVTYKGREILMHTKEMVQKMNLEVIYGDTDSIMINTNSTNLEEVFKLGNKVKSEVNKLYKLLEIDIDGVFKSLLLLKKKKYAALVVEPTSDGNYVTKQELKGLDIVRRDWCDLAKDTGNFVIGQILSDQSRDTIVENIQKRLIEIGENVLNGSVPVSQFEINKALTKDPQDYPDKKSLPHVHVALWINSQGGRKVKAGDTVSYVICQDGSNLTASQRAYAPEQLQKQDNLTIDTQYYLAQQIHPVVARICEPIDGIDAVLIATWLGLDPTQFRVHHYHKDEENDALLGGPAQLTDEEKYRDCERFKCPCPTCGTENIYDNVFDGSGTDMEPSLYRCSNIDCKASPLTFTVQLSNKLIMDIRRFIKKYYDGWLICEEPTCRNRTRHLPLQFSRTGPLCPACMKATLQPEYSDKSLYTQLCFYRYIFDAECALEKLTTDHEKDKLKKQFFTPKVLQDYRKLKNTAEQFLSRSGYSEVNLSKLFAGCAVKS
The experiment can be described thus: biochemical. Also noted: inhibition of human DNA polymerases, selectivity assay.

Experiment [3] concerns the target T3, Polγ (Homo sapiens, UniProt P54098).
T3 construct: gene POLG
T3 sequence (P54098 1-1239): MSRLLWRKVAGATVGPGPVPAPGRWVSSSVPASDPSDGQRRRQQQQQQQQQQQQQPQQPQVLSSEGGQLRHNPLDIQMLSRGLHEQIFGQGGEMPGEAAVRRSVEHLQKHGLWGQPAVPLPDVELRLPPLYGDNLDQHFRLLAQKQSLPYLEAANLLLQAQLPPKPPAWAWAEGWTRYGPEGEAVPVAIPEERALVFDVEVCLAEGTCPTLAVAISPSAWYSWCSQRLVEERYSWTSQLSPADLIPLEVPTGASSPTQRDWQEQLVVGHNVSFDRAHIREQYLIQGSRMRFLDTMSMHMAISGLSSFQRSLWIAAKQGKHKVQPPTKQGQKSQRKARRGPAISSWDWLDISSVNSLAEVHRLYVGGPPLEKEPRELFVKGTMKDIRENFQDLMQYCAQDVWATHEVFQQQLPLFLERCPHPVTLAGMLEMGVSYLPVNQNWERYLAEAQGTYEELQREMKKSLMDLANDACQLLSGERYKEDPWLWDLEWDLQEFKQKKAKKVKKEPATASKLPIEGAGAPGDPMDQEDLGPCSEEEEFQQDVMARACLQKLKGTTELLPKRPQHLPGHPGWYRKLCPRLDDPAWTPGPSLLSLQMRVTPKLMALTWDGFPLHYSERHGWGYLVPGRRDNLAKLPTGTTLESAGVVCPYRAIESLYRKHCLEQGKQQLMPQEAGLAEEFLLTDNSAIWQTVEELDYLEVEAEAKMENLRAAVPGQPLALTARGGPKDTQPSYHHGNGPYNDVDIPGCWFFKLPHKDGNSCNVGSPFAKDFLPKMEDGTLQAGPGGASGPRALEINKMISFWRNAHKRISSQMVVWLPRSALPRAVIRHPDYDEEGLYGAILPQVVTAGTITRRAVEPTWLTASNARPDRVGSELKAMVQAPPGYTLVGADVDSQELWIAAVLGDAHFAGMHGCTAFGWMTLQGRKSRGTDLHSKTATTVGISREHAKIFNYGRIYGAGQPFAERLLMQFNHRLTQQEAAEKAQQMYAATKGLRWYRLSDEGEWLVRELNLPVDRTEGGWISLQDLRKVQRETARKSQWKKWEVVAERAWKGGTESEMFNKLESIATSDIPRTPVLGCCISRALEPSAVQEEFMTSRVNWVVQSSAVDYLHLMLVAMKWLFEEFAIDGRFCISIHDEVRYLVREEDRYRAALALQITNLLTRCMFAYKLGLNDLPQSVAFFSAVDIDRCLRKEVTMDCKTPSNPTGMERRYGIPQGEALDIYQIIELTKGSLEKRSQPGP
The experiment can be described thus: biochemical. Also noted: inhibition of human DNA polymerases, selectivity assay.

Experiment [4] concerns the target T4, Polη (Homo sapiens, UniProt Q9Y253).
T4 construct: gene POLH
T4 sequence (Q9Y253 1-713): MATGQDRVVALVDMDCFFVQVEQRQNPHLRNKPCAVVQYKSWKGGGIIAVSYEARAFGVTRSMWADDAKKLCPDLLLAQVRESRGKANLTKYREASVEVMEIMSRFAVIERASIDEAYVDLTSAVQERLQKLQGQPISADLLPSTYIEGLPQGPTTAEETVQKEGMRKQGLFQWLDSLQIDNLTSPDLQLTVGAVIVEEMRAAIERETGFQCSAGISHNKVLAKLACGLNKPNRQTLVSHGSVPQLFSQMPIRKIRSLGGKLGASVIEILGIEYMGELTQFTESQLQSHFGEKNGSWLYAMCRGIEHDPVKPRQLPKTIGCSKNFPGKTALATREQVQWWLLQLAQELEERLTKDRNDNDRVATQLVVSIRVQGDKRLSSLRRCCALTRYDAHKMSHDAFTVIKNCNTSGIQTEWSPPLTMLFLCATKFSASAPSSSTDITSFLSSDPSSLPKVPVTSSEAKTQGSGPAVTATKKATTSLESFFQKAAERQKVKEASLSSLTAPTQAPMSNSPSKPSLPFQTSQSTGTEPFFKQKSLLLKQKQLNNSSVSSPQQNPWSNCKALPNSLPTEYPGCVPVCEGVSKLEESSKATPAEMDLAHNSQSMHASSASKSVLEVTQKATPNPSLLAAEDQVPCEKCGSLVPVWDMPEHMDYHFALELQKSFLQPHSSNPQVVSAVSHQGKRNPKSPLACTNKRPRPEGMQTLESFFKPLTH
The experiment can be described thus: biochemical. Set-up: inhibition of human DNA polymerases, selectivity assay.

Experiment [5] deals with T5, Polν (Homo sapiens, UniProt Q7Z5Q5).
T5 construct: gene POLN
T5 sequence (Q7Z5Q5 1-900): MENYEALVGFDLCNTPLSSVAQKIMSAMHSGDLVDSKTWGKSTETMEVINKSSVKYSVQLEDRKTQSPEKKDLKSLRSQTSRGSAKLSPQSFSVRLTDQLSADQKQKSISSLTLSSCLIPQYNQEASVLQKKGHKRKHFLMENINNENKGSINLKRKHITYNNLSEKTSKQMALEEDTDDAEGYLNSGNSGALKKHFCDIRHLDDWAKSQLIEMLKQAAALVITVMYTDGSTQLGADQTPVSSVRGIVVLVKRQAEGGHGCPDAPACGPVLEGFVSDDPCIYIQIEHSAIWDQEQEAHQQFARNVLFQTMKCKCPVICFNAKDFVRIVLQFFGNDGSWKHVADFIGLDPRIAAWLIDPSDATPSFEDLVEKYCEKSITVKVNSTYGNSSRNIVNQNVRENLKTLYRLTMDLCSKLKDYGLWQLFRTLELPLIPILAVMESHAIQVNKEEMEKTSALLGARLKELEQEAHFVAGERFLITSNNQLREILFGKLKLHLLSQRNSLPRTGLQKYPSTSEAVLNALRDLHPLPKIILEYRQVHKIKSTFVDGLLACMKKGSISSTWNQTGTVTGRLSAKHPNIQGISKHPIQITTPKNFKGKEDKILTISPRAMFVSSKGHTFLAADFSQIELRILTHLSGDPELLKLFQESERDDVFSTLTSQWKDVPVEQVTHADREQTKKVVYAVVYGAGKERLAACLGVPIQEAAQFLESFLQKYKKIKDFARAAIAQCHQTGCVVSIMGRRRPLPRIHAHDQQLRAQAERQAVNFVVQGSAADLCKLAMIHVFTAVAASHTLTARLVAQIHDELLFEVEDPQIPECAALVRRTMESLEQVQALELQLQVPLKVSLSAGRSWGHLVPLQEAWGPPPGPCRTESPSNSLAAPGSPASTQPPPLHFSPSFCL
The experiment can be described thus: biochemical. Set-up: inhibition of human DNA polymerases, selectivity assay.

T1 sequence (O75417 2-2590): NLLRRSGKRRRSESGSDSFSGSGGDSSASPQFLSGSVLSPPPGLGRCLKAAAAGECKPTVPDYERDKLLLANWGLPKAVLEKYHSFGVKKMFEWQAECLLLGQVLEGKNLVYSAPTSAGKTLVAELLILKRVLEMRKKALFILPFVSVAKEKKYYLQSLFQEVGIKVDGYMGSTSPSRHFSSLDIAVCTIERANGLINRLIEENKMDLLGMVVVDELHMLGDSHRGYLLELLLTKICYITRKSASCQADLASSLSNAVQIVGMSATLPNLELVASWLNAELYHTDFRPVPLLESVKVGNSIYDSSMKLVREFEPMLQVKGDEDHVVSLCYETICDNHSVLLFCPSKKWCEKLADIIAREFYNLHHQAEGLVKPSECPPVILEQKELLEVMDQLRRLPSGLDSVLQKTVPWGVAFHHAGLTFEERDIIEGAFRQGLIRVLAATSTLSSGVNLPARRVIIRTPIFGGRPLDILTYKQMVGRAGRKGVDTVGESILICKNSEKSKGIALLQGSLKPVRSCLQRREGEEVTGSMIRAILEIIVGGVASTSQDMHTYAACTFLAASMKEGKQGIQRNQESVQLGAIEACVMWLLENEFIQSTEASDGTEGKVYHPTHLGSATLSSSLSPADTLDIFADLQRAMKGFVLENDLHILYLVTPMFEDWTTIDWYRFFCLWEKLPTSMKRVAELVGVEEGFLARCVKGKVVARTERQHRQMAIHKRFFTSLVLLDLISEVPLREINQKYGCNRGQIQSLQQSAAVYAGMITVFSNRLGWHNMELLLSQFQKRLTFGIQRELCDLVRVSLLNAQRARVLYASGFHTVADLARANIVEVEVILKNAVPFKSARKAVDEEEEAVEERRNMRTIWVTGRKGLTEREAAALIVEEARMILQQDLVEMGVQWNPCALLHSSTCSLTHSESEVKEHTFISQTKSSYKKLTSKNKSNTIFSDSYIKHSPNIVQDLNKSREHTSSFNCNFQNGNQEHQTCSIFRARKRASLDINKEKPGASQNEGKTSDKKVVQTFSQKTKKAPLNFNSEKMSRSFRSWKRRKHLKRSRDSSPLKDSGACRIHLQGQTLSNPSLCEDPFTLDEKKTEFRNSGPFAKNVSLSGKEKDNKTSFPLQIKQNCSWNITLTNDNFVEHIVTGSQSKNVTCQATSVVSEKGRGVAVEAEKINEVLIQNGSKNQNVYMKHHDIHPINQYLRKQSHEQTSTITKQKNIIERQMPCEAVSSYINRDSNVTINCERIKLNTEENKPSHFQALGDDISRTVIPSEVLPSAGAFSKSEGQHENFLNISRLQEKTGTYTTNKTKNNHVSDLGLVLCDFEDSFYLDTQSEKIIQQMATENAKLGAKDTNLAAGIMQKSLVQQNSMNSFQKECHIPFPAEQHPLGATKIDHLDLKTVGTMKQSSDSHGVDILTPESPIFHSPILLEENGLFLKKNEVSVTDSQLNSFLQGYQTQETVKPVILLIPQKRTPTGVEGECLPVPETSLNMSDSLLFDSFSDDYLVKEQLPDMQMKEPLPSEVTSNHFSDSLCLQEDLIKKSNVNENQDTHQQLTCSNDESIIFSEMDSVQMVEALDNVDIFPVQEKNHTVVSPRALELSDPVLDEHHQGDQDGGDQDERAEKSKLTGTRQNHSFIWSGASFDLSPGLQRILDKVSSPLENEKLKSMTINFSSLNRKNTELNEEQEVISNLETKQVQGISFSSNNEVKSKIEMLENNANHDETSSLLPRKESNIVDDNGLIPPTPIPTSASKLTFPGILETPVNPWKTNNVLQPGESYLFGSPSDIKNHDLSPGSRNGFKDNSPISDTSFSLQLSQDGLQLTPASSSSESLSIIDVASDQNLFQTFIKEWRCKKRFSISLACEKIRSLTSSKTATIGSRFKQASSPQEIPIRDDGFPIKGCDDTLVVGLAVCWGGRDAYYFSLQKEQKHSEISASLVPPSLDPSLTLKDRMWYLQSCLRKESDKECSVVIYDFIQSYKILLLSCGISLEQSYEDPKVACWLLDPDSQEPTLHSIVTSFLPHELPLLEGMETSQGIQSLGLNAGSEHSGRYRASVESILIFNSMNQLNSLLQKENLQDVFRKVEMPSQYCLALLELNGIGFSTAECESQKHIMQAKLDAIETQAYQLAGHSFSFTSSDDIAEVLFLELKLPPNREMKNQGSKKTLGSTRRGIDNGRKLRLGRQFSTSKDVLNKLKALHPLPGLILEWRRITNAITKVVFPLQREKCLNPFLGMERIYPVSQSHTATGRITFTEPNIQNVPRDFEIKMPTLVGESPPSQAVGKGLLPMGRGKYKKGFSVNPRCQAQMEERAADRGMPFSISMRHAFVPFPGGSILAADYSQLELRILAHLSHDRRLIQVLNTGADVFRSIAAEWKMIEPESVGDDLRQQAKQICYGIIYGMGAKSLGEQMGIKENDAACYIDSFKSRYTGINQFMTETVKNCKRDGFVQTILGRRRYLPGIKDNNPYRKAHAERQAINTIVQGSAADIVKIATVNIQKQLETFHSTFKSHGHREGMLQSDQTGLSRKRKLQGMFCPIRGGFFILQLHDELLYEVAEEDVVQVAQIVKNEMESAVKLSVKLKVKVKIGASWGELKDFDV

Turning to `Cc1cccc(N(C)C(=O)[C@@H]2[C@H](O)CCN2c2nc(C)cc(C(F)(F)F)c2C#N)c1` [ART558], the IC50 was 0.0079 µM in experiment [1]; greater than 100 µM in experiment [2]; greater than 100 µM in experiment [3]; greater than 100 µM in experiment [4]; greater than 100 µM in experiment [5].
